Patent US20230240973A1, “CANNABIS SATIVA EXTRACTS AND THEIR USES” (LINNEA SA, priority 2020, published 2023)

Legend:
IL-8 [1] = experiment: IL-8 secretion in TNF-α stimulated HaCaT cells; format: cell-based; conditions: human keratinocytes (HaCaT), TNF-α 10 ng/ml
Protocol: (§1) To evaluate the anti-inflammatory activity of the extract according to the present invention, the in vitro effect after exposure to pro-inflammatory stimuli on the expression levels of factors known to be involved in inflammatory processes was evaluated.
(§2) In particular, the following were chosen as inflammation markers: • IL-8, a cytokine secreted by keratinocytes and fibroblasts following inflammation and particularly involved in skin diseases such as psoriasis; • MMP-9, a metalloprotease which degrades the extracellular matrix and which is activated following chronic skin inflammations such as dermatitis and psoriasis; • VEGF, the release of which by keratinocytes leads to the formation of the classic psoriatic plaques in patients suffering from this pathology.

IL-8 [2] = experiment: IL-8 release in TNF-α stimulated HDF cells; format: cell-based; conditions: human fibroblasts (HDF)
Source text: (§3) FIG. 7: effect evaluated on TNF-α stimulated HDF cells (A) on transcription induced by NF-kB and on release of (B) IL8, (C) MMP-9 following exposure to the indicated doses of the composition according to the present invention and, for comparative purposes, (D) on NF-kB-induced transcription and (E) IL8, (F) MMP-9 release following exposure to pure CBD.
as §1, §2
(§4) FIG. 7 reports the results obtained in human fibroblasts.

MMP-9 [3] = experiment: MMP-9 release in TNF-α stimulated HDF cells; format: cell-based; conditions: human fibroblasts (HDF)
Source text: as §3, §1, §2, §4

NF-kB = NF-kB driven transcription in TNF-α stimulated HaCaT cells; format: cell-based; conditions: human keratinocytes (HaCaT), read-out: IC50 of inhibition of NF-kB-driven transcription
Protocol: as §1
The nuclear transcription factor NF-kB is activated by pro-inflammatory stimuli and activates the transcription of genes that amplify the inflammatory process, such as MMP-9, cytokines and growth factors such as VEGF.

HDF cells = experiment: MTT cytotoxicity assay on HDF cells; format: cell-based, human; conditions: 6 or 24 hours (FIG. 3)
Protocol: (§5) The cytotoxicity tests were performed using the MTT assay, capable of measuring the mitochondrial succinic dehydrogenase enzyme, whose activity indicates cell viability, on human keratinocytes or fibroblasts incubated with the Cannabis sativa extract according to example 2 and with pure CBD. The integrity of the morphology before and after 6 and 24 hour incubation was assessed by light microscopy.
(§6) HaCaT cells, spontaneously immortalized human keratinocyte line (Boukamp et al., 1988) and normal human dermal fibroblasts (HDF) were cultured in DMEM (Gibco, Life Technologies, Monza, Italy) supplemented with 10% heat inactivated fetal bovine serum (Euroclone SpA, Milan, Italy), L-glutamine (2 mM; Gibco, Life Technologies, Monza, Italy), penicillin (100 U/ml), and streptomycin ([…]; Gibco, Life Technologies, Monza, Italy), at 37° C. in a humidified atmosphere containing 5% CO2. Every 4 days, at 80-90% confluence, the cells were detached using 0.25% trypsin-EDTA (Gibco, Life Technologies, Monza, Italy), counted and placed in a new flask at a density of 1.5×10^6 cells per flask, to allow for growth. For the purpose of the present analyses, the cells were seeded in 24-well plates and incubated with the extract according to the present invention or pure CBD at increasing concentrations. […]

MMP-9 [4] = experiment: MMP-9 secretion in TNF-α stimulated HaCaT cells; format: cell-based; conditions: human keratinocytes (HaCaT), TNF-α 10 ng/ml
Protocol: as §1, §2

HaCaT cells = experiment: MTT cytotoxicity assay on HaCaT cells; format: cell-based, human; conditions: 6 or 24 hours (FIG. 4)
Protocol: as §5, §6

VEGF = VEGF secretion in TNF-α stimulated HaCaT cells; format: cell-based; conditions: human keratinocytes (HaCaT), TNF-α 10 ng/ml
Protocol: as §1, §2

Structure (SMILES): C=C(C)[C@@H]1CCC(C)=C[C@H]1c1c(O)cc(CCCCC)cc1O [CBD, cannabidiol]
- effect on expression levels of IL-8 (IL-8 [1]): no effect
- effect on release of IL-8 (IL-8 [2]): no effect
- effect on release of MMP-9 (MMP-9 [3]): no effect
- IC50 (NF-kB): 2850 nM
- concentrations showing cytotoxic effects (HDF cells): above 2.5 μM
- effect on expression levels of MMP-9 (MMP-9 [4]): modest
- concentrations showing cytotoxic effects (HaCaT cells): above 5 μM
- effect on expression levels of VEGF (VEGF): modest
